Experimental data: the supplement of paper PMC10307832

Legend:
Experiment in all cases: relative viability (nuclei count vs DMSO), 5 days (fraction); higher = more cells survive
BAY61-3606 + Alpelisib = compound: COC1=C(C=C(C=C1)C2=CC3=NC=CN3C(=N2)NC4=C(C=CC=N4)C(=O)N)OC [BAY61-3606] + Cc1nc(NC(=O)N2CCC[C@H]2C(N)=O)sc1-c1ccnc(C(C)(C)C(F)(F)F)c1 [Alpelisib] (partner 2 µM)
Procedure, shortened: (§1)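 Medians of duplicate plates are given as relative viability. That measure is the nuclei count in treated wells divided by the count in vehicle wells. Counts were taken on 4× images of lung cancer cell lines in 1536-well plates, 5 days after pin-tool dosing the day after seeding with one drug alone or a fixed anchor-drug dose plus five library-drug doses (not always all listed) in √10 steps.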

Doxorubicin + Linsitinib = compound: COc1cccc2c1C(=O)c1c(O)c3c(c(O)c1C2=O)C[C@@](O)(C(=O)CO)C[C@@H]3O[C@H]1C[C@H](N)[C@H](O)[C@H](C)O1 [Doxorubicin] + C[C@]1(O)C[C@@H](c2nc(-c3ccc4ccc(-c5ccccc5)nc4c3)c3c(N)nccn32)C1 [Linsitinib] (partner 1 µM)
Procedure, shortened: as §1

Doxorubicin + Bortezomib = compound: COc1cccc2c1C(=O)c1c(O)c3c(c(O)c1C2=O)C[C@@](O)(C(=O)CO)C[C@@H]3O[C@H]1C[C@H](N)[C@H](O)[C@H](C)O1 [Doxorubicin] + CC(C)C[C@H](NC(=O)[C@H](Cc1ccccc1)NC(=O)c1cnccn1)B(O)O [Bortezomib] (partner 0.002 µM)
Procedure, shortened: as §1

BAY61-3606 + Olaparib = compound: COC1=C(C=C(C=C1)C2=CC3=NC=CN3C(=N2)NC4=C(C=CC=N4)C(=O)N)OC [BAY61-3606] + O=C(c1cc(Cc2n[nH]c(=O)c3ccccc23)ccc1F)N1CCN(C(=O)C2CC2)CC1 [Olaparib] (partner 8 µM)
Procedure, shortened: as §1

Cell Line | relative viability (BAY61-3606 + Alpelisib; first compound 0.02 µM) | relative viability (BAY61-3606 + Alpelisib; first compound 0.06325 µM) | relative viability (BAY61-3606 + Alpelisib; first compound 0.2 µM) | relative viability (BAY61-3606 + Alpelisib; first compound 0.6325 µM) | relative viability (BAY61-3606 + Alpelisib; first compound 2 µM) | relative viability (Doxorubicin + Linsitinib; first compound 0.001 µM) | relative viability (Doxorubicin + Linsitinib; first compound 0.003162 µM) | relative viability (Doxorubicin + Linsitinib; first compound 0.01 µM) | relative viability (Doxorubicin + Linsitinib; first compound 0.03162 µM) | relative viability (Doxorubicin + Linsitinib; first compound 0.1 µM) | relative viability (Doxorubicin + Bortezomib; first compound 0.001 µM) | relative viability (Doxorubicin + Bortezomib; first compound 0.003162 µM) | relative viability (Doxorubicin + Bortezomib; first compound 0.01 µM) | relative viability (Doxorubicin + Bortezomib; first compound 0.03162 µM) | relative viability (Doxorubicin + Bortezomib; first compound 0.1 µM) | relative viability (BAY61-3606 + Olaparib; first compound 0.02 µM) | relative viability (BAY61-3606 + Olaparib; first compound 0.06325 µM) | relative viability (BAY61-3606 + Olaparib; first compound 0.2 µM) | relative viability (BAY61-3606 + Olaparib; first compound 0.6325 µM) | relative viability (BAY61-3606 + Olaparib; first compound 2 µM)
NCI-H1703 | 0.377 | 0.385 | 0.317 | 0.305 | 0.218 | 0.481 | 0.676 | 0.695 | 0.64 | 0.474 | 0.234 | 0.324 | 0.25 | 0.165 | 0.0968 | 0.626 | 0.383 | 0.448 | 0.541 | 0.276
LCLC-103H | 0.94 | 0.965 | 0.981 | 1.03 | 1.04 | 0.935 | 1.17 | 1.06 | 1.17 | 1.14 | 1.07 | 1.12 | 1.08 | 1.14 | 1.12 | 0.764 | 0.786 | 0.847 | 0.758 | 0.772
NCI-H441 | 0.734 | 0.796 | 0.809 | 0.848 | 0.439 | 0.697 | 0.718 | 0.513 | 0.281 | 0.513 |  | 0.452 | 0.392 | 0.295 | 0.315 | 0.561 | 0.629 | 0.511 | 0.473 | 0.32
COR-L 105 | 0.942 | 0.988 | 0.76 | 1.02 | 0.788 | 1.05 | 1.04 | 0.955 | 0.557 | 0.433 | 0.787 | 0.71 | 0.74 | 0.41 | 0.256 | 0.741 | 0.658 | 0.603 | 0.787 | 0.584
NCI-H1993 | 0.644 | 0.674 | 0.719 | 0.758 | 0.703 | 0.711 | 0.751 | 0.741 | 0.659 | 0.733 | 1.1 | 0.945 | 1.06 | 0.634 | 0.439 | 1.11 | 1.04 | 0.984 | 1.13 | 0.82
Calu-6 | 1.04 | 1.13 | 0.946 | 0.956 | 0.703 | 0.944 | 0.972 | 0.814 | 0.627 | 0.702 | 0.897 | 1.01 | 0.804 | 0.408 | 0.248 | 0.659 | 0.562 | 0.543 | 0.551 | 0.466
NCI-H2009 | 1.11 | 1.14 | 1.09 | 1.21 | 1.08 | 1.16 | 1.15 | 1.28 | 0.953 | 0.639 | 0.914 | 1.1 | 0.912 | 0.572 | 0.266 | 0.714 | 0.639 | 0.864 | 0.713 | 0.592
NCI-H23 | 0.776 | 0.594 | 0.653 | 0.829 | 0.41 |  | 0.539 | 0.683 | 0.473 | 0.638 |  | 1.06 | 0.93 | 0.514 | 0.567 | 0.327 | 0.304 | 0.289 | 0.305 | 0.288
NCI-H2405 | 1.03 | 0.619 | 0.682 | 0.881 | 0.574 |  | 0.938 | 0.887 | 0.707 | 0.519 | 1 | 1.01 | 0.973 | 0.994 | 0.994 | 0.941 | 0.89 | 0.845 | 0.907 | 0.695
HCC-44 | 0.866 | 0.909 | 0.806 | 0.997 | 0.833 | 0.686 | 0.667 | 0.621 | 0.69 | 0.753 | 0.947 | 0.988 | 0.891 | 0.949 | 0.828 | 0.955 | 0.974 | 0.979 | 0.901 | 0.958
EMC-BAC-2 | 0.817 | 0.837 | 0.75 | 0.85 | 0.802 | 0.797 | 0.864 | 0.84 | 0.854 | 0.776 | 1.11 | 1.1 | 0.997 | 0.518 | 0.451 | 0.493 | 0.52 | 0.48 | 0.493 | 0.457
NCI-H322M | 0.9 | 0.792 | 0.852 | 0.898 | 0.841 | 0.986 | 0.913 | 0.982 | 0.974 | 0.952 | 1.45 | 1.21 | 1.28 | 1.27 | 1.18 | 0.779 | 0.822 | 0.75 | 0.749 | 0.724
EPLC-272H | 1.03 | 0.935 | 1 | 0.986 | 0.905 | 0.936 | 1.45 | 1.4 | 1.18 | 1.13 | 0.827 | 0.98 | 0.897 | 1.05 | 0.931 | 0.962 | 0.722 | 0.706 | 0.709 | 0.323
EBC-1 | 0.907 | 0.902 | 0.869 | 0.928 | 0.686 | 0.826 | 0.839 | 0.983 | 0.722 | 0.985 | 0.589 | 0.52 | 0.542 | 0.363 | 0.222 | 0.712 | 0.769 | 0.701 | 0.748 | 0.614
NCI-H1975 | 0.667 | 0.645 | 0.62 | 0.507 | 0.295 | 1.09 | 1.02 | 0.845 | 0.572 | 0.464 | 0.433 | 0.364 | 0.321 | 0.226 | 0.165 | 0.858 | 0.798 | 0.733 | 0.707 | 0.516
NCI-H727 | 0.611 | 0.615 | 0.609 | 0.721 | 0.488 | 0.275 | 0.323 | 0.304 | 0.251 | 0.455 | 0.794 | 0.985 | 0.656 | 0.658 | 0.613 | 0.586 | 0.643 | 0.752 | 0.68 | 0.627
NCI-H520 | 1.07 | 0.801 | 1.11 | 1.04 | 1.02 | 0.888 | 0.986 | 0.826 | 0.698 | 0.73 | 0.575 | 0.581 | 0.46 | 0.361 | 0.269 | 0.359 | 0.325 | 0.383 | 0.391 | 0.274
NCI-H1355 | 0.944 | 0.811 | 0.791 | 0.713 | 0.534 | 0.793 | 0.862 | 0.81 | 0.872 | 0.785 | 1.08 | 1.32 | 1.14 | 1.28 | 1.29 | 0.778 | 0.713 | 0.708 | 0.762 | 0.641
NCI-H2347 | 1.17 | 0.9 | 1.13 | 1.16 | 0.986 | 0.978 | 0.923 | 0.923 | 0.889 | 0.959 | 1.05 | 0.697 | 0.955 | 0.908 | 0.692 | 0.575 | 0.629 | 0.603 | 0.597 | 0.559
LC-2-ad | 0.851 | 0.96 | 0.875 | 0.82 | 0.671 | 0.879 | 0.803 | 0.902 | 0.763 | 0.791 | 1.01 | 0.962 | 0.995 | 0.834 | 0.544 | 0.703 | 0.701 | 0.723 | 0.717 | 0.578
NCI-H838 | 0.988 | 0.963 | 0.982 | 1.02 | 0.888 | 1.04 | 1.04 | 0.952 | 0.906 | 0.446 | 0.89 | 1.03 | 0.967 | 0.384 | 0.17 | 0.802 | 0.847 | 0.751 | 0.729 | 0.571
NCI-H2087 | 1.15 | 1.17 | 1.02 | 1.16 | 0.949 | 0.789 | 0.912 | 1.14 | 0.892 | 0.98 | 0.6 | 0.7 | 0.869 | 0.678 | 0.55 | 0.547 | 0.682 | 0.489 | 0.54 | 0.448
NCI-H596 | 0.428 | 0.482 | 0.108 | 0.479 | 0.407 | 1.01 | 1.12 | 1.09 | 1.01 | 0.992 |  | 1.26 | 1.01 | 0.928 | 0.972 | 0.74 | 0.75 | 0.722 | 0.925 | 0.544
RERF-LC-KJ | 0.957 | 0.751 | 0.765 | 0.853 | 0.629 | 0.816 | 0.858 | 0.873 | 0.943 | 0.887 | 1.03 | 1.2 | 1.03 | 0.809 | 0.967 | 0.878 | 0.899 | 1.07 | 0.872 | 0.779
NCI-H647 | 1.02 | 1.36 | 0.922 | 1.03 | 0.534 | 0.977 | 1.17 | 0.952 | 0.441 | 0.435 | 1.03 | 1.04 | 0.907 | 0.213 | 0.111 | 0.729 | 0.743 | 0.574 | 0.432 | 0.237
LU99A | 0.508 | 0.521 | 0.508 | 0.492 | 0.251 | 0.521 | 0.645 | 0.526 | 0.456 | 0.575 | 1.1 | 1.23 | 1.14 | 0.764 | 0.5 | 0.261 | 0.253 | 0.241 | 0.246 | 0.243
NCI-H460 | 0.58 | 0.442 | 0.482 | 0.398 | 0.174 | 0.714 | 0.687 | 0.385 | 0.0347 | 0.0076 | 0.981 | 0.964 | 0.244 | 0.0223 | 0.0093 | 0.501 | 0.464 | 0.393 | 0.444 | 0.457
